The test system of the experiment is HCT-116 human colon cancer cells. Description: Colony formation inhibition test on HCT-116 human colon cancer cells. The class given is cell-based. To be noted: for Number of cell clones on HCT-116, mean / inhibition at 0.05 µM / inhibition at 0.15 µM / inhibition at 0.45 µM: 72 h treatment, then 7-10 days; for inhibition at 0.05 µM / inhibition at 0.15 µM / inhibition at 0.45 µM / IC50: Homo sapiens; for inhibition at 0.05 µM / inhibition at 0.15 µM / inhibition at 0.45 µM: HCT-116, read-out: % inhibition (colony formation inhibition rate); for IC50: HCT-116 cells, dose-response 50, 150, 450 nM, read-out: IC50 value (colony formation inhibition, FIG. 7). On the procedure: 1. The colony formation inhibition test was used to evaluate the effect of four exemplary candidate compounds (D1, D2, D3, and D4) having concentrations of 50 nM, 150 nM and 450 nM on inhibiting cell proliferation of HCT-116 human colon cancer cells line.
2. Experiment material includes cell lines. HCT-116 human colon cancer cell line was purchased from the Chinese Academy of Sciences Shanghai Cell Resource Center, Cat # TCHu 99.
3. Reagent preparation includes HCT-116 human colon cancer cell culture medium, e.g., Dulbecco's Modified Eagle's medium (DMEM) medium with 10% fetal bovine serum (FBS). Compound solutions were prepared by dissolving and diluting the above synthesized compounds in dimethyl sulfoxide (DMSO) to a final concentration of about 100 μM.
Cell staining solution was prepared including 0.5% crystal violet solution prepared using absolute or anhydrous ethanol, and stored in dark. Before staining, the solution was mixed with phosphate buffered saline (PBS) buffer solution by volume ratio of 1:4 as the cell staining solution.
4. Cell culture: cells in logarithmic growth phase were collected, counted, and resuspended in complete culture medium. The cell concentration was adjusted to an appropriate concentration, 6-well culture plates were seeded, with about 300 cells and 1.8 mL of culture medium in each well. Cells were incubated for about 5 hours in an incubator at about 37° C. and about 100% relative humidity and under 5% CO2.
5. Cell colony formation inhibition test and data processing were performed including, for example, (a)-(i) as follows.
(a) Cells in logarithmic growth phase were collected and counted. The cells were re-suspended in culture medium containing 5% FBS, and counted. Six-well plates were seeded according to a rate of 300 cells per well. Cells were incubated for about 5 hours in an incubator at about 37° C. with 100% relative humidity and under 5% CO2.
(b) The compounds were diluted with culture medium (containing 5% FBS) to be concentrations of about 0.5 μM, 1.5 μM and 4.5 μM. Adding the compounds to cells in 200 μL per well, the final concentrations of the compounds were about 50 nM, 150 nM and 450 nM. Each concentration point was repeatedly tested for three times.
(c) Cells were incubated for about 72 hours in an incubator at 37° C. with 100% relative humidity and under 5% CO2. (d) The culture medium from the plates (the culture medium containing the compound(s) was aspirated. The plates were rinsed with Hank's Balance Salt Solution (HBSS) twice, and replaced with fresh culture medium (DMEM medium with 15% FBS).
(e) Cells were incubated for about 7-10 days in an incubator at about 37° C. and 100% relative humidity and under 5% CO2, until the formation of visible cloned plaques. (f) The culture medium was aspirated from the plates. The plates were rinsed twice with PBS solution. (g) The residual PBS was absorbed and removed, and ethanol was added at 1 mL per plate, fixing for 30 minutes.
(h) Ethanol was absorbed and removed, and cell staining solution was added, stained for 3 minutes. (i) The staining solution was aspirated. After rinsing three times with PBS, the cells were counted.
Data processing was performed. Cloning formation efficiency=[As/Ac]×100%; and colony formation inhibition rate=1−cloning formation efficiency, where As denotes number of cell colonies in compound-treated group (cells+compounds to be tested), and Ac denotes number of cell colonies in negative control (without treating with compound) (cells+1% DMSO).

The results in this text go back to US10351586B2, “Cytidine derivative dimers and applications thereof” (CHANGZHOU FANGYUAN PHARMACEUTICAL CO., LTD, priority 2014, dated 2019).

The inhibition is how much of the control response was suppressed. By IC50 is commonly meant the concentration at which inhibition is half-maximal. Take `CCCCOC(=O)Nc1ccn(C2OC(COC(=O)CCCC(=O)OC[C@H]3O[C@@H](n4ccc(NC(=O)OCCCC)nc4=O)C(F)(F)[C@@H]3OC(=O)OCCCC)C(OC(=O)OCCCC)C2(F)F)c(=O)n1` (stereo in doubt) [Compound D1, 1,5-di-[4-N-(n-butyloxycarbonyl)-3′-O-(n-butoxycarbonyl)-2′-deoxy-2′,2′-difluoro-cytidine]glutarate]: the IC50 is about 245 nM. Besides, where the note is “50 nM”, the “Number of cell clones on HCT-116, mean” value is 242 and the inhibition at 0.05 µM was found to be 3.58%. In addition, under “150 nM”, the “Number of cell clones on HCT-116, mean” value is given as 188 and the inhibition at 0.15 µM was determined as 25.1%. Also, where the note is “450 nM”, the “Number of cell clones on HCT-116, mean” value stood at 52 and the inhibition at 0.45 µM was 79.3%.

Regarding `CCCCOC(=O)Nc1ccn([C@H]2O[C@@H](COC(=O)CCC(=O)OC[C@H]3O[C@@H](n4ccc(NC(=O)OCCCC)nc4=O)C(F)(F)[C@@H]3O)[C@H](O)C2(F)F)c(=O)n1` (stereo in doubt) [Compound D2, 1,5-di-[4-N-(n-butoxycarbonyl)-2′-deoxy-2′,2′-difluoro-cytidine]glutarate], the half-maximal inhibitory concentration (IC50) was about 227 nM. For the setting “50 nM”, the “Number of cell clones on HCT-116, mean” value is on record as 243 and the inhibition at 0.05 µM was 4.7%. For the setting “150 nM”, the “Number of cell clones on HCT-116, mean” value is 191 and the inhibition at 0.15 µM was 25.1%. Under “450 nM”, the “Number of cell clones on HCT-116, mean” value was determined as 36 and the inhibition at 0.45 µM came to 85.9%.

With `CCCCOC(=O)Nc1ccn(C2OC(COC(=O)CCC(=O)OC[C@H]3O[C@@H](n4ccc(NC(=O)OCc5ccccc5)nc4=O)C(F)(F)[C@@H]3O)C(O)C2(F)F)c(=O)n1` (stereo in doubt) [Compound D4, 1-O-(4-N-(Benzyloxycarbonyl)-gemcitabine)-4-O-(4-N-(n-Butoxycarbonyl)-gemcitabine)-succinate], the IC50 was about 112 nM. In addition, for the setting “50 nM”, the “Number of cell clones on HCT-116, mean” value was 235 and the inhibition at 0.05 µM is 8.2%. Also, for the setting “150 nM”, the “Number of cell clones on HCT-116, mean” value is 75 and the inhibition at 0.15 µM is 70.7%. Under “450 nM”, the “Number of cell clones on HCT-116, mean” value is given as 11 and the inhibition at 0.45 µM stood at 95.7%.

On to `O=C(CCCC(=O)OC[C@H]1O[C@@H](n2ccc(NC(=O)OCc3ccccc3)nc2=O)C(F)(F)[C@@H]1O)OC[C@H]1O[C@@H](n2ccc(NC(=O)OCc3ccccc3)nc2=O)C(F)(F)[C@@H]1O` [Compound D3, 1,5-di-[4-N-(benzyloxycarbonyl)-2′-deoxy-2′,2′-difluoro-cytidine]glutarate], for which the 50% inhibitory concentration (IC50) was about 99.8 nM. Under “50 nM”, the “Number of cell clones on HCT-116, mean” value was 237 and the inhibition at 0.05 µM turned out to be 1.66%. For the same compound, for the setting “150 nM”, the “Number of cell clones on HCT-116, mean” value was 20 and the inhibition at 0.15 µM was 91.7%. Further, under “450 nM”, the “Number of cell clones on HCT-116, mean” value stood at 4 and the inhibition at 0.45 µM came to 98.3%.
